Values after ≈ are worked out from the molar mass of the structure shown. Values joined by “and” are separate entries in the source; they are usually repeats but may differ in a detail not shown here. Identical values can stand only once.
Experiments:
Assay in all cases: ≥ marks a high value that may be exact or a test limit, other limits are often not marked, values filed in µg/mL are converted to µM
[1] = test system: Staphylococcus aureus ATCC 25923
[2] = test system: Escherichia coli ATCC 25922
[3] = test system: Pseudomonas aeruginosa ATCC 27853
[4] = test system: Staphylococcus aureus ATCC 29213

Row | SMILES | MIC [1] | MIC [2] | MIC [3] | MIC [4]
1 | CC(C)C[C@H](NC(=O)[C@H](C)NC(=O)[C@@H](N)CCCCN)C(=O)N[C@@H](Cc1c[nH]c2ccccc12)C(=O)N[C@@H](CCCCN)C(=O)N[C@H](C(=O)N[C@@H](CC(C)C)C(=O)N[C@@H](CC(C)C)C(=O)N[C@@H](CCCCN)C(=O)N[C@@H](CCCCN)C(=O)N[C@H](C(=O)N[C@@H](CC(C)C)C(=O)N[C@@H](CCCCN)C(=O)N[C@@H](C)C(N)=O)C(C)C)[C@@H](C)O [KALWKTLLKKVLKA] | 25 µM (≈ 41 µg/mL) | 3 µM (≈ 4.92 µg/mL) | – | –
2 | CC(C)C[C@H](NC(=O)[C@H](CC(C)C)NC(=O)[C@H](CC(N)=O)NC(=O)[C@H](CCCCN)NC(=O)[C@H](CC(C)C)NC(=O)[C@H](CC(=O)O)NC(=O)[C@@H](N)C(C)C)C(=O)N[C@@H](CCCCN)C(=O)O [VDLKNLLK] | – | – | 32 µM (≈ 30.1 µg/mL) | –
3 | CC(C)[C@H](NC(=O)[C@@H]1CCCN1C(=O)[C@@H](N)Cc1ccccc1)C(=O)N[C@H](C(=O)N[C@@H](Cc1c[nH]c2ccccc12)C(=O)N[C@@H](CCCCN)C(=O)N[C@@H](Cc1c[nH]c2ccccc12)C(=O)N[C@@H](Cc1c[nH]c2ccccc12)C(=O)N[C@@H](CCCCN)C(=O)N[C@@H](Cc1c[nH]c2ccccc12)C(=O)N[C@@H](Cc1c[nH]c2ccccc12)C(=O)N[C@@H](CCCCN)C(=O)NCC(N)=O)[C@@H](C)O [FPVTWKWWKWWKG] | 20 µM (≈ 36.7 µg/mL) | 5.3 µM and 8 µM | – | –
4 | CC(C)C[C@H](NC(=O)[C@H](CCCCN)NC(=O)CNC(=O)[C@@H](N)CO)C(=O)N[C@@H](Cc1ccc(O)cc1)C(=O)N[C@@H](Cc1ccc(O)cc1)C(=O)N[C@@H](CCCN=C(N)N)C(=O)N[C@@H](CCCN=C(N)N)C(=O)N[C@@H](CCCCN)C(=O)N[C@@H](CCCCN)C(N)=O [SGKLYYRRKK] | > 100 µM | – | > 100 µM | –
5 | CC(C)C[C@H](NC(=O)[C@H](CCCCN)NC(=O)[C@H](CC(C)C)NC(=O)[C@H](CC(C)C)NC(=O)[C@H](CCCCN)NC(=O)[C@H](CCCCN)NC(=O)[C@H](CCC(N)=O)NC(=O)[C@H](CC(C)C)NC(=O)[C@H](CCCCN)NC(=O)[C@H](CC(C)C)NC(=O)[C@H](CC(C)C)NC(=O)[C@H](CCCCN)NC(=O)[C@H](CCCCN)NC(=O)[C@@H](N)CC(C)C)C(=O)N[C@@H](C)C(=O)NCC(=O)O [LKKLLKLQKKLLKLAG] | – | 2.5 µM (≈ 4.59 µg/mL) | – | > 40 µM
6 | C[C@H](NC(=O)[C@H](Cc1ccccc1)NC(=O)[C@H](CCCCN)NC(=O)[C@H](CCCCN)NC(=O)[C@H](C)NC(=O)[C@@H](N)Cc1ccccc1)C(=O)N[C@@H](CCCCN)C(=O)N[C@@H](CCCCN)C(=O)N[C@@H](Cc1ccccc1)C(=O)N[C@@H](CCCCN)C(N)=O [FAKKFAKKFK] | 193 µM (≈ 240 µg/mL) | 193 µM (≈ 240 µg/mL) | 193 µM (≈ 240 µg/mL) | –
7 | CC[C@H](C)[C@H](NC(=O)[C@H](CCCN=C(N)N)NC(=O)[C@H](CCCCN)NC(=O)[C@H](CC(C)C)NC(=O)[C@@H](NC(=O)CN)C(C)C)C(=O)N[C@@H](CCCCN)C(=O)N[C@H](C(=O)N[C@@H](CC(C)C)C(=O)N[C@H](C(N)=O)C(C)C)[C@@H](C)O [GVLKRIKTLV] | – | > 200 µM | – | –

Next, values leading:

Row | MIC [1] | MIC [2] | MIC [3] | MIC [4] | SMILES
8 | – | 1 µM (≈ 4.9 µg/mL) | – | – | CC[C@H](C)[C@H](NC(=O)CNC(=O)[C@H](CC(N)=O)NC(=O)[C@@H](NC(=O)[C@@H](NC(=O)CNC(=O)[C@@H](NC(=O)[C@H](CCCCN)NC(=O)[C@@H](NC(=O)CNC(=O)[C@H](CCCCN)NC(=O)CNC(=O)[C@@H](NC(=O)[C@@H](NC(=O)[C@H](CCCCN)NC(=O)[C@@H]1CCCN1C(=O)[C@H](Cc1ccccc1)NC(=O)[C@@H](NC(=O)CN)[C@@H](C)CC)[C@@H](C)CC)[C@@H](C)CC)[C@@H](C)CC)[C@@H](C)O)[C@@H](C)CC)C(C)C)C(=O)N[C@@H](CCCCN)C(=O)N[C@@H](CO)C(=O)N[C@@H](CC(C)C)C(=O)N[C@H](C(=O)N[C@@H](CCCCN)C(=O)NCC(=O)N[C@H](C(=O)NCC(=O)N[C@@H](CCSC)C(=O)N[C@@H](CCCCN)C(=O)N[C@H](C(=O)N[C@@H](Cc1ccccc1)C(=O)N[C@@H](CCCCN)C(=O)N[C@@H](C)C(=O)NCC(=O)N[C@@H](CC(C)C)C(=O)N[C@@H](CO)C(=O)N[C@@H](CC(N)=O)C(=O)N[C@H](C(=O)NCC(=O)N[C@@H](CC(N)=O)C(=O)N[C@H](C(=O)NCC(=O)N[C@H]1CSSC[C@@H](C(=O)O)NC(=O)[C@H](CCC(=O)O)NC(=O)[C@H](CC(=O)O)NC(=O)[C@H](CCC(=O)O)NC(=O)[C@H](CC(N)=O)NC1=O)[C@@H](C)O)[C@@H](C)CC)C(C)C)C(C)C)C(C)C [GIFPKIIGKGIKTGIVNGIKSLVKGVGMKVFKAGLSNIGNTGCNEDEC]
9 | 15 µM (≈ 31.3 µg/mL) | 15 µM (≈ 31.3 µg/mL) | – | – | CC(C)C[C@H](NC(=O)CN)C(=O)N[C@@H](CC(C)C)C(=O)N[C@@H](CC(=O)O)C(=O)N[C@@H](Cc1ccccc1)C(=O)N[C@@H](CC(C)C)C(=O)N[C@@H](CCCCN)C(=O)N[C@@H](C)C(=O)N[C@@H](C)C(=O)NCC(=O)N[C@@H](CCCCN)C(=O)NCC(=O)N[C@@H](CC(C)C)C(=O)N[C@H](C(=O)N[C@@H](CO)C(=O)N[C@@H](CC(N)=O)C(=O)N[C@@H](CC(C)C)C(=O)N[C@@H](CC(C)C)C(=O)N[C@@H](CCC(=O)O)C(=O)N[C@@H](CCCCN)C(N)=O)C(C)C [GLLDFLKAAGKGLVSNLLEK]
10 | – | – | – | 38.4 µM (≈ 100 µg/mL) | CC[C@H](C)[C@H](NC(=O)CN)C(=O)NCC(=O)N[C@@H](CCCCN)C(=O)N[C@@H](CC(C)C)C(=O)N[C@@H](Cc1ccccc1)C(=O)N[C@@H](CC(C)C)C(=O)N[C@@H](Cc1cnc[nH]1)C(=O)N[C@@H](C)C(=O)N[C@@H](C)C(=O)N[C@@H](CCCCN)C(=O)N[C@@H](CCCCN)C(=O)N[C@@H](Cc1ccccc1)C(=O)N[C@@H](C)C(=O)N[C@@H](CCCCN)C(=O)N[C@@H](C)C(=O)N[C@@H](Cc1ccccc1)C(=O)N[C@H](C(=O)N[C@@H](C)C(=O)N[C@@H](CCC(=O)O)C(=O)N[C@@H](CCCCN)C(=O)N[C@@H](CCSC)C(=O)N[C@@H](CC(N)=O)C(=O)N[C@@H](CO)C(=O)O)C(C)C [GIGKLFLHAAKKFAKAFVAEKMNS]
11 | 3.05 µM (≈ 5 µg/mL) | 4.58 µM (≈ 7.5 µg/mL) | 12.2 µM (≈ 20 µg/mL) | – | C[C@H](NC(=O)[C@H](Cc1c[nH]c2ccccc12)NC(=O)[C@H](CCCN=C(N)N)NC(=O)[C@H](Cc1c[nH]c2ccccc12)NC(=O)[C@H](C)NC(=O)[C@H](CCCCN)NC(=O)[C@@H](N)Cc1ccc(O)cc1)C(=O)N[C@@H](Cc1c[nH]c2ccccc12)C(=O)N[C@@H](CCCN=C(N)N)C(=O)N[C@@H](Cc1c[nH]c2ccccc12)C(=O)N[C@@H](CCCCN)C(N)=O [YKAWRWAWRWK]
12 | – | 28 µM (≈ 80.5 µg/mL) | – | – | CC[C@H](C)[C@H](NC(=O)CNC(=O)[C@H](CCSC)NC(=O)[C@H](CCCCN)NC(=O)[C@H](C)NC(=O)[C@H](CC(C)C)NC(=O)[C@H](CCCCN)NC(=O)[C@H](CCC(=O)O)NC(=O)[C@H](CC(C)C)NC(=O)CNC(=O)[C@H](CCCN=C(N)N)NC(=O)[C@H](CC(C)C)NC(=O)[C@@H](NC(=O)[C@H](CO)NC(=O)[C@H](CC(C)C)NC(=O)[C@H](C)N)[C@@H](C)CC)C(=O)N[C@@H](C)C(=O)N[C@@H](CC(C)C)C(=O)N[C@H](C(=O)N[C@@H](CC(N)=O)C(=O)N[C@H]1CSSC[C@@H](C(=O)O)NC(=O)[C@H](CCCCN)NC(=O)[C@H](CCCCN)NC(=O)[C@H]([C@@H](C)O)NC(=O)[C@H](C)NC(=O)[C@H](CCCCN)NC1=O)[C@@H](C)O [ALSILRGLEKLAKMGIALTNCKATKKC]
13 | – | 10.7 µM (≈ 16 µg/mL) | – | – | CC[C@H](C)[C@H](NC(=O)[C@H](Cc1c[nH]c2ccccc12)NC(=O)[C@H](CCCN=C(N)N)NC(=O)[C@H](Cc1c[nH]c2ccccc12)NC(=O)[C@H](Cc1c[nH]c2ccccc12)NC(=O)[C@H](CCCN=C(N)N)NC(=O)[C@H](CCCN=C(N)N)NC(=O)[C@H](Cc1c[nH]c2ccccc12)NC(=O)[C@@H](N)CCCN=C(N)N)C(N)=O [RWRRWWRWI]
14 | > 60 µM | > 60 µM | – | – | CC[C@H](C)[C@H](NC(=O)[C@@H](NC(=O)[C@@H]1CCCN1C(=O)CNC(=O)[C@@H](NC(=O)[C@@H](N)Cc1ccccc1)[C@@H](C)CC)[C@@H](C)CC)C(=O)N[C@@H](CO)C(=O)N[C@@H](C)C(=O)N[C@@H](CC(C)C)C(=O)N[C@@H](C)C(=O)N[C@@H](CO)C(=O)N[C@@H](CC(C)C)C(=O)N[C@@H](Cc1ccccc1)C(=O)NCC(N)=O [FIGPIISALASLFG]
15 | 200 µM (≈ 456 µg/mL) | 25 µM (≈ 57 µg/mL) | – | – | CC[C@H](C)[C@H](NC(=O)CNC(=O)[C@H](CCCCN)NC(=O)[C@@H](NC(=O)[C@H](CC(C)C)NC(=O)[C@H](CO)NC(=O)CNC(=O)[C@H](CC(C)C)NC(=O)CNC(=O)[C@H](C)NC(=O)[C@H](CCCCN)NC(=O)[C@H](Cc1ccccc1)NC(=O)[C@@H](NC(=O)[C@H](CC(=O)O)NC(=O)[C@H](CCCCN)NC(=O)[C@H](CC(C)C)NC(=O)CN)[C@@H](C)CC)C(C)C)C(=O)N[C@@H](C)C(=O)N[C@@H](C)C(=O)N[C@@H](Cc1cnc[nH]1)C(=O)N[C@H](C(=O)N[C@@H](C)C(=O)N[C@@H](CC(N)=O)C(N)=O)C(C)C [GLKDIFKAGLGSLVKGIAAHVAN]
16 | 2.9 µM (≈ 5 µg/mL) | 5.8 µM (≈ 9.99 µg/mL) | 4.35 µM (≈ 7.5 µg/mL) | – | CSCC[C@H](NC(=O)[C@H](CCCN=C(N)N)NC(=O)[C@H](Cc1c[nH]c2ccccc12)NC(=O)[C@H](C)NC(=O)[C@H](Cc1c[nH]c2ccccc12)NC(=O)[C@H](CCCN=C(N)N)NC(=O)[C@H](Cc1ccc(O)cc1)NC(=O)[C@H](Cc1c[nH]c2ccccc12)NC(=O)[C@H](CCCN=C(N)N)NC(=O)[C@@H](N)CCCN=C(N)N)C(=O)N[C@@H](CCCN=C(N)N)C(N)=O [RRWYRWAWRMR]
17 | – | 78 µM (≈ 249 µg/mL) | – | – | CC[C@H](C)[C@H](NC(=O)[C@@H](NC(=O)[C@@H](NC(=O)CNC(=O)[C@H](C)NC(=O)[C@@H](NC(=O)[C@H](CC(N)=O)NC(=O)[C@@H](NC(=O)[C@H](C)NC(=O)[C@H](CC(C)C)NC(=O)[C@H](CC(N)=O)NC(=O)[C@H](CCCCN)NC(=O)[C@@H](NC(=O)[C@@H](NC(=O)[C@H](CO)NC(=O)[C@H](Cc1ccccc1)NC(=O)[C@H](Cc1ccccc1)NC(=O)CN)[C@@H](C)O)C(C)C)[C@@H](C)O)C(C)C)[C@@H](C)O)C(C)C)C(=O)N[C@@H](CC(=O)O)C(=O)N[C@H](C(=O)N[C@@H](CC(C)C)C(=O)N[C@@H](CCCCN)C(=O)N[C@H]1CSSC[C@@H](C(=O)N[C@@H](CCCN=C(N)N)C(=O)N[C@@H](CO)C(=O)O)NC(=O)CNC(=O)CNC(=O)[C@H]([C@@H](C)O)NC(=O)[C@H](C(C)C)NC(=O)[C@H](CCCCN)NC1=O)[C@@H](C)O [GFFSTVKNLATNVAGTVIDTLKCKVTGGCRS]

Source: DBAASP
